{"source": "patent US20010053351A1", "about": "“Inhibition of GSK-3 beta” (priority 1999, published 2001)", "key": {"GSK-3": {"test_system": "GSK-3", "details": "cited from earlier work"}, "GSK-3β": {"target": "GSK-3β (Homo sapiens, UniProt P49841)", "sequence (P49841 whole entry)": "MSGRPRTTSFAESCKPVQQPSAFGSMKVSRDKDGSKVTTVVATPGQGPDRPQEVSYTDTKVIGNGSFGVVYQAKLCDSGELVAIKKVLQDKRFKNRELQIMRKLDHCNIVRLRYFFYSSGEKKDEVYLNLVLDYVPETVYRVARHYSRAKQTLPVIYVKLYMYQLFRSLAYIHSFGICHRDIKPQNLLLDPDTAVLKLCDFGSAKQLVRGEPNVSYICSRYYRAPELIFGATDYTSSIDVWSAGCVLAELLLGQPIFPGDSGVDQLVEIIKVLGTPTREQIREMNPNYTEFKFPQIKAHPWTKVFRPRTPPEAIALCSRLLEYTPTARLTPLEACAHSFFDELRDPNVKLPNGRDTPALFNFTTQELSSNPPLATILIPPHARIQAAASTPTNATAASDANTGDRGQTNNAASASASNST", "details": "significant effects at concentrations of VPA similar to those attained clinically; cited from earlier work"}, "GSK-3α": {"target": "GSK-3α (Homo sapiens, UniProt P49840)", "sequence (P49840 whole entry, species assumed)": "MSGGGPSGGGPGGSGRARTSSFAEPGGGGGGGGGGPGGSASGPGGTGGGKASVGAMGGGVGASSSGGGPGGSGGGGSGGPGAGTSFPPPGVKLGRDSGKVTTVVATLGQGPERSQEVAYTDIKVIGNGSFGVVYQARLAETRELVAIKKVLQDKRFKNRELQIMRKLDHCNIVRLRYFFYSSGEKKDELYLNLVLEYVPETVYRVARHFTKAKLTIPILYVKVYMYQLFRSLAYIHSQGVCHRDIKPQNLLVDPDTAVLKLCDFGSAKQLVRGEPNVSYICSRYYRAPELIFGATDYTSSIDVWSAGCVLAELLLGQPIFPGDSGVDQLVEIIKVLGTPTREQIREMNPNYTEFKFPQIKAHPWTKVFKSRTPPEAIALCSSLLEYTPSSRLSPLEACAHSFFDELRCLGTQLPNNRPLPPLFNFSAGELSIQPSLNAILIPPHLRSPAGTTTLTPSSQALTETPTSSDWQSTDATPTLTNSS", "details": "significant effects at concentrations of VPA similar to those attained clinically; cited from earlier work"}, "GSK-3β−/− cells": {"test_system": "GSK-3β−/− cells", "experiment": "Cell death / viability (trypan blue) of GSK-3β-/- embryonic fibroblast cell lines", "assay_type": "cell-based, mouse", "details": "anisomycin 0-5 μg/ml, sorbitol 0-1000 mM, daunorubicin 0-1000 ng/ml", "text": "To probe the mechanism by which GSK-3β impacted TNF cytotoxicity, immortalized mouse embryonic fibroblast (MEF) cell lines from two wild-type ([…]), two GSK-3β heterozygous (+/−1 and +/−2) and two GSK-3β homozygous mutant (−/−1 and −/−2) embryos were derived from embryos.\nWe next examined the sensitivity of the lines to TNF-induced cell death. […] As a reference, TNF receptor-associated factor 2 (TRAF2) homozygous mutant MEFs were used in the same assay.\nViability is expressed normalized to untreated controls. Independently derived GSK-3β^+/+ EF cell clones are indicated by +/+1 and +/+2; GSK-3β^+/− by +/−1 and +/−2; and GSK-3β^−/− by −/−1, and −/−2. […] Cells were uniformly treated with cycloheximide (CHX, 0.25 μg/ml). […] (C) Sensitivity of GSK-3β^−/− EF cells to various apoptotic stimuli. EF cells were stimulated with anisomycin (0-5 μg/ml), sorbitol (0-1000 mM), daunorubicin (0-1000 ng/ml), and γ-irradiation (0-50 Gy). All experiments were repeated at least three times, and the data (as a percentage) is shown as the mean ± standard error."}}}
{"compound": "CC(C)NCC(O)c1ccc(O)c(O)c1", "note": "(stereo not shown) [Isoproterenol]", "values": [{"measurement": "decrease of GSK-3 activity", "setting": "GSK-3", "result": "approximately 50%"}]}
{"compound": "CCCC(CCC)C(=O)O", "note": "[VPA, Valproic acid]", "values": [{"measurement": "inhibition of GSK-3β", "setting": "GSK-3β", "result": "inhibits"}, {"measurement": "inhibition of GSK-3α", "setting": "GSK-3α", "result": "inhibits"}]}
{"compound": "COc1cccc2c1C(=O)c1c(O)c3c(c(O)c1C2=O)C[C@@](O)(C(C)=O)C[C@@H]3O[C@H]1C[C@H](N)[C@H](O)[C@H](C)O1", "note": "[daunorubicin]", "values": [{"measurement": "susceptibility of GSK-3β-deficient cells to apoptotic stimuli", "setting": "GSK-3β−/− cells", "result": "normal susceptibility"}]}
{"compound": "OC[C@@H](O)[C@@H](O)[C@H](O)[C@@H](O)CO", "note": "[sorbitol]", "values": [{"measurement": "susceptibility of GSK-3β-deficient cells to apoptotic stimuli", "setting": "GSK-3β−/− cells", "result": "normal susceptibility"}]}
{"compound": "COc1ccc(C[C@H]2NC[C@H](O)[C@H]2OC(C)=O)cc1", "note": "[anisomycin]", "values": [{"measurement": "susceptibility of GSK-3β-deficient cells to apoptotic stimuli", "setting": "GSK-3β−/− cells", "result": "normal susceptibility"}]}
{"compound": "insulin", "values": [{"measurement": "decrease of GSK-3 activity", "setting": "GSK-3", "result": "approximately 50%"}]}
